Measurements reported in publication PMC6585716, “Protein catalyzed capture agents with tailored performance for in vitro and in vivo applications” (Biopolymers, 2017).
Where two headings read alike, the source gives them in different places. Starred links: 1 amine or outer side, 2 acyl side, 3 side chain; linkers in the order of their positions; H or OH if unused. Positions of bridges follow the written chain, without caps; N, C: chain ends. Non-standard residues stand in square brackets, D forms with d. Residues, ends and D or L forms follow the SMILES beside them. Triazole bridges read from a SMILES are 1,4-linked. Chains are numbered I, II in the order given. *: point of attachment. X1 = O=C(CCCC[C@@H]1SC[C@@H]2NC(=O)N[C@@H]21)NCCCOCCOCCOCCCN*; Lys(N3) = [N-]=[N+]=NCCCC[C@H](N)C(=O)O; Suc = O=C(CCC(=O)[*:2])[*:1]; dPra = C#CC[C@@H](N)C(=O)O

Legend:
in vivo = conditions: male, CD-1, mouse
[1] = pH 7.4
[2] = mouse, in vivo, ip, 5 mg/kg
[3] = In vivo pharmacokinetics in mice (IV or IP, parallel sampling); conditions: for AUC% Ext: male CD-1 mice
[4] = male, CD-1, mouse, plasma, ip, 5 mg/kg
[5] = male, CD-1, mouse, plasma, iv, 1 mg/kg

With `CC[C@H](C)[C@@H]1NC(=O)[C@H](CC(=O)O)NC(=O)[C@@H](NC(=O)[C@H](CC(N)=O)NC(=O)[C@@H]2CCCN2C(=O)[C@H](CCC(=O)O)NC(=O)[C@@H](NC(=O)CCC(=O)NCCCOCCOCCOCCCNC(=O)CCCC[C@@H]2SC[C@@H]3NC(=O)N[C@@H]32)C(C)C)CSSC[C@@H](C(=O)N[C@@H](Cc2ccccc2)C(=O)N[C@@H](CCC(=O)O)C(=O)N[C@@H](CCCNC(=N)N)C(=O)N[C@@H](CC(C)C)C(=O)N[C@@H](CCCCn2cc(C[C@@H](N)C(=O)N[C@H](CC(C)C)C(=O)N[C@H](Cc3ccccc3)C(=O)N[C@H](CCCNC(=N)N)C(=O)N[C@H](CCC(=O)O)C(=O)N[C@H](Cc3c[nH]c4ccccc34)C(N)=O)nn2)C(=O)O)NC(=O)[C@H](CCC(=O)O)NC(=O)[C@H](Cc2c[nH]c3ccccc23)NC(=O)[C@H](CCC(=O)O)NC(=O)[C@H](Cc2c[nH]c3ccccc23)NC(=O)[C@H](CCSC)NC(=O)[C@H](C(C)C)NC(=O)[C@H](Cc2c[nH]cn2)NC1=O` [Bi‐LV] (I: {X1-Suc}-VEPNCDIHVMWEWECFERL[Lys(N3)]-OH / II: H-[dPra][dL][dF][dR][dE][dW]-NH2; disulfide I:5-I:15; triazole I:20-II:1) the AUC(0-inf) (in vivo; ip, 5 mg/kg) was 2420 ng·h/mL, the AUC(0-t) (in vivo; ip, 5 mg/kg) was 2170 ng·h/mL and the Cmax (in vivo; ip, 5 mg/kg) was 3210 ng/mL. For the same molecule, the Tmax (in vivo; ip, 5 mg/kg) was 10.2 min, the half-life (in vivo; ip, 5 mg/kg) was 154 min and the AUC(0-inf) (in vivo; iv, 1 mg/kg) was 1110 ng·h/mL. It also gave an AUC(0-t) (in vivo; iv, 1 mg/kg) of 1050 ng·h/mL, a Vd (in vivo; iv, 1 mg/kg) of 0.16 L/kg and a clearance (in vivo; iv, 1 mg/kg) of 15 mL/min/kg. The half-life (in vivo; iv, 1 mg/kg) was 7 min, the “resistance to metabolic degradation by mouse liver microsomes (in words)” value [1] was “high resistance to metabolic degradation” and the bioavailability [2] was 41%.
For `CC[C@@H](C)[C@@H](NC(=O)[C@@H](CCC(=O)O)NC(=O)[C@@H](CCC(=O)O)NC(=O)[C@H](N)Cc1cn(CCCC[C@H](NC(=O)[C@@H](Cc2c[nH]c3ccccc23)NC(=O)[C@@H](CCC(=O)O)NC(=O)[C@@H](CCCNC(=N)N)NC(=O)[C@@H](Cc2ccccc2)NC(=O)[C@@H](CC(C)C)NC(=O)[C@H](N)Cc2cn(CCCC[C@H](NC(=O)[C@H](CC(C)C)NC(=O)[C@H](CCCNC(=N)N)NC(=O)[C@H](CCC(=O)O)NC(=O)[C@H](Cc3ccccc3)NC(=O)[C@@H]3CSSC[C@H](NC(=O)[C@H](CC(N)=O)NC(=O)[C@@H]4CCCN4C(=O)[C@H](CCC(=O)O)NC(=O)[C@@H](NC(=O)CCC(=O)NCCCOCCOCCOCCCNC(=O)CCCC[C@@H]4SC[C@@H]5NC(=O)N[C@@H]54)C(C)C)C(=O)N[C@@H](CC(=O)O)C(=O)N[C@@H]([C@@H](C)CC)C(=O)N[C@@H](Cc4c[nH]cn4)C(=O)N[C@@H](C(C)C)C(=O)N[C@@H](CCSC)C(=O)N[C@@H](Cc4c[nH]c5ccccc45)C(=O)N[C@@H](CCC(=O)O)C(=O)N[C@@H](Cc4c[nH]c5ccccc45)C(=O)N[C@@H](CCC(=O)O)C(=O)N3)C(=O)O)nn2)C(=O)O)nn1)C(=O)N[C@H](CCCNC(=N)N)C(=O)N[C@H](CC(=O)O)C(N)=O` [Tri‐LV] (I: {X1-Suc}-VEPNCDIHVMWEWECFERL[Lys(N3)]-OH / II: H-[dPra][dL][dF][dR][dE][dW][Lys(N3)]-OH / III: H-[dPra][dE][dE][dI][dR][dD]-NH2; disulfide I:5-I:15; triazole I:20-II:1, II:7-III:1), the “AUC% Ext” value ([3]; IP, 5 mg/kg single dose, plasma) was 2.04%, the “AUC% Ext” value ([3]; IV, 1 mg/kg single dose, plasma) was 6.49% and the AUC(0-inf) [3, 4] was 32200 ng·h/mL. For the same molecule, the AUC(0-t) [3, 4] was 31500 ng·h/mL, the Cmax [3, 4] was 19800 ng/mL and the Tmax [3, 4] was 30 min. The AUC(0-inf) [3, 5] was 6490 ng·h/mL, the AUC(0-t) [3, 5] was 6070 ng·h/mL and the Vd [3, 5] was 0.0967 L/kg. It also gave a clearance [3, 5] of 2.57 mL/min/kg and a bioavailability ([3]; mouse, in vivo, ip, 5 mg/kg) of 99%.
